# Test results from ChEMBL document CHEMBL3414547, “Recent advances of chroman-4-one derivatives: synthetic approaches and bioactivities” (Eur J Med Chem, 2015).
# Columns and labels:
# Staphylococcus aureus [1] = assay: Antibacterial activity against methicillin-resistant Staphylococcus aureus 252; type: functional
# Nannizzia gypsea [2] = assay: Antifungal activity against Microsporum gypseum; type: functional
# Saccharomyces cerevisiae [3] = assay: Antifungal activity against Saccharomyces cerevisiae; type: functional
# Candida albicans [4] = assay: Antifungal activity against Candida albicans; type: functional
# Candida albicans [5] = assay: Ratio of fluconazole MIC to compound MIC for Candida albicans; type: functional
# Saccharomyces cerevisiae [6] = assay: Ratio of fluconazole MIC to compound MIC for Saccharomyces cerevisiae; type: functional
# T47D = assay: Cytotoxicity against human T47D cells after 72 hrs by MTT assay; type: functional, cell-based
# MDA-MB-231 [7] = assay: Cytotoxicity against human MDA-MB-231 cells after 72 hrs by MTT assay; type: functional, cell-based; conditions: MDA-MB-231, 72 h
# MCF7 = assay: Cytotoxicity against human MCF7 cells after 72 hrs by MTT assay; type: functional, cell-based; conditions: MCF7, 72 h
# MDA-MB-231 [8] = assay: Cytotoxicity against human MDA-MB-231 cells after 24 hrs by MTT assay; type: functional, cell-based; conditions: MDA-MB-231, 24 h
# K562 = assay: Cytotoxicity against human K562 cells after 24 hrs by MTT assay; type: functional, cell-based; conditions: K562, 24 h
# SK-N-MC [9] = assay: Cytotoxicity against human SK-N-MC cells after 24 hrs by MTT assay; type: functional, cell-based
# HUVEC = assay: Cytotoxicity against HUVEC by MTT assay; type: functional, cell-based; conditions: Homo sapiens
# Acetylcholinesterase = Acetylcholinesterase (Homo sapiens, UniProt P22303); assay: Inhibition of AChE (unknown origin)
# Chain of Acetylcholinesterase (P22303 whole entry): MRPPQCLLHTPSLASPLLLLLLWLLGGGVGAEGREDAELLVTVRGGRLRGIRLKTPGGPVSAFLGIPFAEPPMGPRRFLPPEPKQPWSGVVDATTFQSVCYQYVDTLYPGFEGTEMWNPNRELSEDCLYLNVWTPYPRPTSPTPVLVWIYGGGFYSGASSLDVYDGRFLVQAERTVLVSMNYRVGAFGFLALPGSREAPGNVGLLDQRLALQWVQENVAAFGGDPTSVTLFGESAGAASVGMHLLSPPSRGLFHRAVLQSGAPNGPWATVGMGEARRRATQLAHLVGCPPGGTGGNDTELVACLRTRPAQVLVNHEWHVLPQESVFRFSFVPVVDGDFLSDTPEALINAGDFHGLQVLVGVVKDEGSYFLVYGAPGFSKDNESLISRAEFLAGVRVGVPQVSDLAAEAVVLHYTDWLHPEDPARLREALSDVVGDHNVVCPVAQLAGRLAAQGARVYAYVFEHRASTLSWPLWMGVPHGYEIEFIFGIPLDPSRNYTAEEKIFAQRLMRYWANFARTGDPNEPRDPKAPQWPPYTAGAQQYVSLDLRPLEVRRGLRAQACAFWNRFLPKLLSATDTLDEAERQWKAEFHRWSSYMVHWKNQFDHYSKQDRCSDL
# Aspergillus niger [10] = assay: Antifungal activity against Aspergillus niger; type: functional
# Nannizzia gypsea [11] = assay: Antifungal activity against Microsporum gypseum PTCC 5070 after 168 hrs by agar dilution method; type: functional; conditions: PTCC 5070, 168 h
# Saccharomyces cerevisiae [12] = assay: Antifungal activity against Saccharomyces cerevisiae PTCC 5177 after 24 to 48 hrs by agar dilution method; type: functional
# Aspergillus niger [13] = assay: Antifungal activity against Aspergillus niger PTCC 5012 after 72 hrs by agar dilution method; type: functional; conditions: PTCC 5012, 72 h
# Candida albicans [14] = assay: Antifungal activity against Candida albicans PTCC 5027 after 24 to 48 hrs by agar dilution method; type: functional
# Staphylococcus aureus [15] = assay: Antibacterial activity against Staphylococcus aureus; type: functional
# SK-N-MC [16] = assay: Cytotoxicity against human SK-N-MC cells by MTT assay; type: functional, cell-based
# KB = assay: Cytotoxicity against human KB cells by MTT assay; type: functional, cell-based
# MDA-MB-231 [17] = assay: Cytotoxicity against human MDA-MB-231 cells by MTT assay; type: functional, cell-based
# Nannizzia gypsea [18] = assay: Ratio of fluconazole MIC to compound MIC for Microsporum gypseum; type: functional
# Aspergillus niger [19] = assay: Ratio of fluconazole MIC to compound MIC for Aspergillus niger; type: functional
# [20] = system: Mycolicibacterium fortuitum; assay: Antimycobacterial activity against Mycobacterium fortuitum; type: functional
# Mycolicibacterium aurum = assay: Antimycobacterial activity against Mycobacterium aurum; type: functional
# [21] = system: Mycolicibacterium smegmatis; assay: Antimycobacterial activity against Mycobacterium smegmatis; type: functional
# Mycolicibacterium phlei = assay: Antimycobacterial activity against Mycobacterium phlei; type: functional
structure (smiles),measurement,setting,value
C=C(C)C(C)c1cc(C2CC(=O)c3c(O)cc(O)cc3O2)cc(OC)c1O (stereo not drawn),MIC,Staphylococcus aureus [1],16 µg/mL
O=[N+]([O-])O.c1ccc(CO/N=C2/c3ccccc3OCC2n2ccnc2)cc1 (stereo not drawn),MIC,Nannizzia gypsea [2],2 µg/mL
C[C@@H]1Oc2cc(Cl)ccc2/C(=N\OCc2ccccc2)[C@H]1n1ccnc1.O=[N+]([O-])O,MIC,Saccharomyces cerevisiae [3],0.5 µg/mL
same,MIC,Candida albicans [4],0.25 µg/mL
same,Ratio,Candida albicans [5],32
same,MIC,Nannizzia gypsea [2],1 µg/mL
same,Ratio,Saccharomyces cerevisiae [6],32
O=C1/C(=C/c2ccccc2)COc2cc3c(cc21)OCO3,IC50,T47D,≤ 9.3 µg/mL
same,IC50,MDA-MB-231 [7],≤ 9.3 µg/mL
same,IC50,MCF7,≤ 9.3 µg/mL
C=C(C)C(C)c1cc(C2CC(=O)c3c(O)cc(O)cc3O2)c(OC)cc1O (stereo not drawn),MIC,Staphylococcus aureus [1],16 µg/mL
COc1cc(/C=C2\COc3cc(O)ccc3C2=O)cc(Br)c1O,IC50,MDA-MB-231 [8],≤ 3.86 µg/mL
same,IC50,K562,≤ 3.86 µg/mL
same,IC50,SK-N-MC [9],≤ 3.86 µg/mL
O=[N+]([O-])O.c1ccc(CO/N=C2\c3ccccc3OCC2n2ccnc2)cc1 (stereo not drawn),MIC,Nannizzia gypsea [2],2 µg/mL
COc1ccccc1/C=C1\COc2ccccc2C1=O,IC50,HUVEC,19 µM
Nc1oc2ccccc2c(=O)c1/C=C1\COc2ccccc2C1=O,IC50,Acetylcholinesterase,0.27 µM
C[C@@H]1Oc2ccccc2/C(=N\OCc2ccc(F)cc2)[C@H]1n1ccnc1.O=[N+]([O-])O,MIC,Nannizzia gypsea [2],1 µg/mL
Clc1ccc(CO/N=C2\c3ccccc3OCC2n2ccnc2)cc1Cl.O=[N+]([O-])O (stereo not drawn),MIC,Candida albicans [4],≤ 1 µg/mL
same,MIC,Aspergillus niger [10],≤ 1 µg/mL
CC1Oc2ccccc2/C(=N/Nc2ccccc2)C1n1ccnc1 (stereo not drawn),MIC,Nannizzia gypsea [11],8 µg/mL
same,MIC,Saccharomyces cerevisiae [12],8 µg/mL
same,MIC,Aspergillus niger [13],8 µg/mL
same,MIC,Candida albicans [14],8 µg/mL
Clc1ccc(CO/N=C2\c3ccc(Cl)cc3OCC2n2cncn2)c(Cl)c1 (stereo not drawn),MIC,Saccharomyces cerevisiae [3],4 µg/mL
CC(C)=CCC/C(C)=C/Cc1c(C2CC(=O)c3c(O)cc(O)cc3O2)ccc(O)c1O (stereo not drawn),MIC,Staphylococcus aureus [15],16 µg/mL
COc1cc(C2CC(=O)c3c(cc(O)c(C/C=C(\C)CCC=C(C)C)c3O)O2)cc(OC)c1O (stereo not drawn),MIC,Staphylococcus aureus [15],4 µg/mL
COc1ccc2c(c1)OC/C(=C\c1cc(Cl)c(OC)c(OC)c1)C2=O,IC50,SK-N-MC [16],7.56 µg/mL
same,IC50,KB,7.56 µg/mL
same,IC50,MDA-MB-231 [17],7.56 µg/mL
Clc1ccc(CO/N=C2\c3ccccc3OCC2n2cncn2)cc1Cl.O=[N+]([O-])O (stereo not drawn),MIC,Nannizzia gypsea [2],1 µg/mL
same,Ratio,Nannizzia gypsea [18],16
same,MIC,Aspergillus niger [10],1 µg/mL
same,Ratio,Aspergillus niger [19],16
COc1ccc(CC2COc3c(ccc4c3OCO4)C2=O)cc1 (stereo not drawn),MIC,[20],128 µg/mL
same,MIC,Mycolicibacterium aurum,32 µg/mL
same,MIC,[21],256 µg/mL
same,MIC,Mycolicibacterium phlei,16 µg/mL
